Reference: article PMC9030254, “Target Hopping from Protein Kinases to PXR: Identification of Small-Molecule Protein Kinase Inhibitors as Selective Modulators of Pregnane X Receptor from TüKIC Library” (Cells, 2022)

Columns and labels:
Assay in all cases: Kinase profiling
Assay type in all cases: biochemical
ERBB4 = target: T1, ERBB4 (Homo sapiens, UniProt Q15303)
T1 construct: purchased ProQinase (Freiburg, Germany)
Description: (§1) The analysis was performed by ProQinase (Freiburg, Germany).

PRKD2 = target: T2, PRKD2 (Homo sapiens, UniProt Q9BZL6)
T2 construct: purchased ProQinase (Freiburg, Germany)
T2 sequence (Q9BZL6 1-878): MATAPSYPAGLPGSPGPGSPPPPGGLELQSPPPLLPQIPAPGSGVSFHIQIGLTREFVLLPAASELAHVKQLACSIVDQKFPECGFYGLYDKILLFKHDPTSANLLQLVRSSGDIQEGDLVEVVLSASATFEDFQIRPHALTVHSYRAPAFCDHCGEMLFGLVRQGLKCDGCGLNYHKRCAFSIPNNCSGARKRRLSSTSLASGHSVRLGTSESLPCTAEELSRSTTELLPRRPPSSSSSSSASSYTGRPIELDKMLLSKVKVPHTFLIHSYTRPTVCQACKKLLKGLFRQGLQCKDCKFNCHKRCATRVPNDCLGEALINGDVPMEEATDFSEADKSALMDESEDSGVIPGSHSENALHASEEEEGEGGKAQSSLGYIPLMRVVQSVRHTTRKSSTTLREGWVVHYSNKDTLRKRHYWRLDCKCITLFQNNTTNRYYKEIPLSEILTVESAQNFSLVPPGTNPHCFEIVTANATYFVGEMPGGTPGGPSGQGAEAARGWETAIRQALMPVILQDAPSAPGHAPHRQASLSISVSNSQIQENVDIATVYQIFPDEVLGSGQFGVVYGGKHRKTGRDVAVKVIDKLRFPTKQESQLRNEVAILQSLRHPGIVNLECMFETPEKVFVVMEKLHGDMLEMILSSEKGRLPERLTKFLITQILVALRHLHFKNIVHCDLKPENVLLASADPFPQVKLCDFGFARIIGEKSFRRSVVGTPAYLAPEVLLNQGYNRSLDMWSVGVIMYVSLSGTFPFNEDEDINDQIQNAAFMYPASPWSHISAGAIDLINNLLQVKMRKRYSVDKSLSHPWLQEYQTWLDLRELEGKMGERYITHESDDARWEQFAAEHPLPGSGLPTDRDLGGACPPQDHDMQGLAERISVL
Description: as §1

EPHA8 = target: T3, EPHA8 (Homo sapiens, UniProt P29322)
T3 construct: purchased ProQinase (Freiburg, Germany)
T3 sequence (P29322 28-1005): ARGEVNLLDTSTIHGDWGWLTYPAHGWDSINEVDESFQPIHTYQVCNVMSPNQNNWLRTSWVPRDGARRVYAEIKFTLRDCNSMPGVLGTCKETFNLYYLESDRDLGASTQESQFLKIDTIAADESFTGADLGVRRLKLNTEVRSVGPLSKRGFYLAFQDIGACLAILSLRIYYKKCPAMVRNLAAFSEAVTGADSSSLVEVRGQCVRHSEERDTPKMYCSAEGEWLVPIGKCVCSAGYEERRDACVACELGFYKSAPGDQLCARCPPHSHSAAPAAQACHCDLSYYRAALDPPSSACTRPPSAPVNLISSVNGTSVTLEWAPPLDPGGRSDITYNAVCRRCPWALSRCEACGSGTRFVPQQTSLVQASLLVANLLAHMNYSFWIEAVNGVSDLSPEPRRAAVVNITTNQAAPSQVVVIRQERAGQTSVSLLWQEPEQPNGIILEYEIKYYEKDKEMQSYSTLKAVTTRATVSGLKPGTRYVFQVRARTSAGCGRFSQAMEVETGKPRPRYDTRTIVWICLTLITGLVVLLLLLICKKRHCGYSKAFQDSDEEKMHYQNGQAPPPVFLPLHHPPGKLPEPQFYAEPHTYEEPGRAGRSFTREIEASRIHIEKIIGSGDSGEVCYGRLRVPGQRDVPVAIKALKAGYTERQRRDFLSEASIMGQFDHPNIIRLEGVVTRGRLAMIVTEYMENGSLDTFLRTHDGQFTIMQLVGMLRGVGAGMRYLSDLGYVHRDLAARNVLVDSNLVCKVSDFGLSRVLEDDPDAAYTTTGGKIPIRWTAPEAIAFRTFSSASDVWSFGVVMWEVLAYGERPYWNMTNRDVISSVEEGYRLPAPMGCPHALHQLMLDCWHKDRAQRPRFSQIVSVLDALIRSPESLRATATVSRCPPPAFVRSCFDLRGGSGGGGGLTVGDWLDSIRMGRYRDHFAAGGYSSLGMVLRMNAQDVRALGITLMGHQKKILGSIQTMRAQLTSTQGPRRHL
Description: as §1

PIM1 = target: T4, PIM1 (Homo sapiens, UniProt P11309)
T4 construct: purchased ProQinase (Freiburg, Germany)
Description: as §1

MAP3K9 = target: T5, MAP3K9 (Homo sapiens, UniProt P80192)
T5 construct: purchased ProQinase (Freiburg, Germany)
Description: as §1

STK39 = target: T6, STK39 (Homo sapiens, UniProt Q9UEW8)
T6 construct: purchased ProQinase (Freiburg, Germany)
Description: as §1

ERK2 = target: T7, ERK2 (Homo sapiens, UniProt P28482)
T7 construct: purchased ProQinase (Freiburg, Germany)
Description: as §1

CDC42BPB = target: T8, CDC42BPB (Homo sapiens, UniProt Q9Y5S2)
T8 construct: purchased ProQinase (Freiburg, Germany)
Description: as §1

CAMKK2 = target: T9, CAMKK2 (Homo sapiens, UniProt Q96RR4)
T9 construct: purchased ProQinase (Freiburg, Germany)
Description: as §1

T7 sequence (P28482 whole entry): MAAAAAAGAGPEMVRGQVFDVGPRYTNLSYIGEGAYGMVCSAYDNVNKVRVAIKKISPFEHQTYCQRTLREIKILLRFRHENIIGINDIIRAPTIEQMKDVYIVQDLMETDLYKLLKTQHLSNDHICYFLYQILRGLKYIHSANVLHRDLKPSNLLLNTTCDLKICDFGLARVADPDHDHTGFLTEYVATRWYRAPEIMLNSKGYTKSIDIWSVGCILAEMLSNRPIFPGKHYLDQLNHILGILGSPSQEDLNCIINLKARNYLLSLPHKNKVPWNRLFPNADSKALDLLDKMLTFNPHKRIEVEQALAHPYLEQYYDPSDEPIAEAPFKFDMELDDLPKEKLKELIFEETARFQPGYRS
T9 sequence (Q96RR4 whole entry): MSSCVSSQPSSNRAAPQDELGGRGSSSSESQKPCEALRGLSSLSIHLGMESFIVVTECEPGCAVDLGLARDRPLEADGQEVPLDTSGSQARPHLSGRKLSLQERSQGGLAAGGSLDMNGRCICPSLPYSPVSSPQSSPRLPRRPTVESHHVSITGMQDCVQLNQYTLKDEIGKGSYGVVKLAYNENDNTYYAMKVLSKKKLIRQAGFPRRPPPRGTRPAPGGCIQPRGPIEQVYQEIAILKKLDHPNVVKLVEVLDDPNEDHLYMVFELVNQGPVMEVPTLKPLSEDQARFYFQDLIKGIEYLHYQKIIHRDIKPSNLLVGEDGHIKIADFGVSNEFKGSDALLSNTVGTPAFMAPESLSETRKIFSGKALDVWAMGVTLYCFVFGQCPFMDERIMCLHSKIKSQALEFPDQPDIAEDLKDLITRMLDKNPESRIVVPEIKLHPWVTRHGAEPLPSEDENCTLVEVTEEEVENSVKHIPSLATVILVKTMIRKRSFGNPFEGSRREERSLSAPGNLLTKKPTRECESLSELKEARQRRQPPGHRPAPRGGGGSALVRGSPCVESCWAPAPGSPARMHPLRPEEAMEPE
T8 sequence (Q9Y5S2 whole entry): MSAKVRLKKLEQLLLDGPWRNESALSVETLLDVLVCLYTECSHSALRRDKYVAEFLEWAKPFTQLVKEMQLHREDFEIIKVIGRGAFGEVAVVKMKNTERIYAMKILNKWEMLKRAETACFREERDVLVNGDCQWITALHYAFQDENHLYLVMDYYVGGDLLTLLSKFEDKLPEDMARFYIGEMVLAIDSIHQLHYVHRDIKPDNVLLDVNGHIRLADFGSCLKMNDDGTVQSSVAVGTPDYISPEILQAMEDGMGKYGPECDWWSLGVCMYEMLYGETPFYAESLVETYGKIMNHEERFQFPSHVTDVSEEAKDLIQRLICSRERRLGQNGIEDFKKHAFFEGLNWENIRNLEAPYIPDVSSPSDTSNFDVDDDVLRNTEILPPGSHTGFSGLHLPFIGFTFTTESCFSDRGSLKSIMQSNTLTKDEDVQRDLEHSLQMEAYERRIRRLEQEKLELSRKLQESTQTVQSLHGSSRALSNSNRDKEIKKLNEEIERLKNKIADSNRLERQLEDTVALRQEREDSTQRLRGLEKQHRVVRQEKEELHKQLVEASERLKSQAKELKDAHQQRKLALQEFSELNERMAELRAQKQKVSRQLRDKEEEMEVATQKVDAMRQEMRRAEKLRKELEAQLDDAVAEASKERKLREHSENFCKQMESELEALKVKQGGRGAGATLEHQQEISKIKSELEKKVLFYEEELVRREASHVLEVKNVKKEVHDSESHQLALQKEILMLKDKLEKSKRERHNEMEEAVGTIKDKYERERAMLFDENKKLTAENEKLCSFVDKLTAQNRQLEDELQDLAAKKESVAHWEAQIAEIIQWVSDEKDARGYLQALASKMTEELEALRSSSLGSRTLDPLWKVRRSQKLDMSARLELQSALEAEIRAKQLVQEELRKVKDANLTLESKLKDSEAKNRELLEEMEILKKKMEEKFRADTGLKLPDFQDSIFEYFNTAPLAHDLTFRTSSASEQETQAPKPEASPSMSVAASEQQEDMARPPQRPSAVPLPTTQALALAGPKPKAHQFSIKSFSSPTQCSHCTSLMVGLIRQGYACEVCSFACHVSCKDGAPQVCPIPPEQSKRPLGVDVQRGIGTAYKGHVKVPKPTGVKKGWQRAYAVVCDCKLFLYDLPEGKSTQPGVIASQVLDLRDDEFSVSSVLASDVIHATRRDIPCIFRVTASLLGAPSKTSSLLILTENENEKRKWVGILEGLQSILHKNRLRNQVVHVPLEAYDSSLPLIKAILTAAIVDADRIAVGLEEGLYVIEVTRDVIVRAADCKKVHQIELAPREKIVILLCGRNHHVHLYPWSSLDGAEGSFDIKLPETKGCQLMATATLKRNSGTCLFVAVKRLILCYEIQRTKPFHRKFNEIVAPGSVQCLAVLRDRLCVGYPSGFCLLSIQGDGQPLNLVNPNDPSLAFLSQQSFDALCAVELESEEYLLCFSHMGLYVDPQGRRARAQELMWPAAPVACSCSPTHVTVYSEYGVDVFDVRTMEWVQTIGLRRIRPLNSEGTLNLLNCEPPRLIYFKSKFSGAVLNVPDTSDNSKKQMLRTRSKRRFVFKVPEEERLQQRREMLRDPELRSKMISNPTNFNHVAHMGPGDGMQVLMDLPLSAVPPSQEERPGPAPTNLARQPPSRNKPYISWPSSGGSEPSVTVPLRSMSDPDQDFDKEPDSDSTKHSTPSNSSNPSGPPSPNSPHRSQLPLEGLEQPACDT
T4 sequence (P11309 whole entry): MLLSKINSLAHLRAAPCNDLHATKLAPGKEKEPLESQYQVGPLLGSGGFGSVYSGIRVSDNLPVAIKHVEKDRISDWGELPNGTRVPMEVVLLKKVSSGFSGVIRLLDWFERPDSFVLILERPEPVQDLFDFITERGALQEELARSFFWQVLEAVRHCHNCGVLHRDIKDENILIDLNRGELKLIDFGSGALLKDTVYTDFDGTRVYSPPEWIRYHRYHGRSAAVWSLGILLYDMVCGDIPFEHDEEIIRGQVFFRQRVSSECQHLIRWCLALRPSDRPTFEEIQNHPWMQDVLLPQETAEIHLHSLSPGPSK
T1 sequence (Q15303 26-1308): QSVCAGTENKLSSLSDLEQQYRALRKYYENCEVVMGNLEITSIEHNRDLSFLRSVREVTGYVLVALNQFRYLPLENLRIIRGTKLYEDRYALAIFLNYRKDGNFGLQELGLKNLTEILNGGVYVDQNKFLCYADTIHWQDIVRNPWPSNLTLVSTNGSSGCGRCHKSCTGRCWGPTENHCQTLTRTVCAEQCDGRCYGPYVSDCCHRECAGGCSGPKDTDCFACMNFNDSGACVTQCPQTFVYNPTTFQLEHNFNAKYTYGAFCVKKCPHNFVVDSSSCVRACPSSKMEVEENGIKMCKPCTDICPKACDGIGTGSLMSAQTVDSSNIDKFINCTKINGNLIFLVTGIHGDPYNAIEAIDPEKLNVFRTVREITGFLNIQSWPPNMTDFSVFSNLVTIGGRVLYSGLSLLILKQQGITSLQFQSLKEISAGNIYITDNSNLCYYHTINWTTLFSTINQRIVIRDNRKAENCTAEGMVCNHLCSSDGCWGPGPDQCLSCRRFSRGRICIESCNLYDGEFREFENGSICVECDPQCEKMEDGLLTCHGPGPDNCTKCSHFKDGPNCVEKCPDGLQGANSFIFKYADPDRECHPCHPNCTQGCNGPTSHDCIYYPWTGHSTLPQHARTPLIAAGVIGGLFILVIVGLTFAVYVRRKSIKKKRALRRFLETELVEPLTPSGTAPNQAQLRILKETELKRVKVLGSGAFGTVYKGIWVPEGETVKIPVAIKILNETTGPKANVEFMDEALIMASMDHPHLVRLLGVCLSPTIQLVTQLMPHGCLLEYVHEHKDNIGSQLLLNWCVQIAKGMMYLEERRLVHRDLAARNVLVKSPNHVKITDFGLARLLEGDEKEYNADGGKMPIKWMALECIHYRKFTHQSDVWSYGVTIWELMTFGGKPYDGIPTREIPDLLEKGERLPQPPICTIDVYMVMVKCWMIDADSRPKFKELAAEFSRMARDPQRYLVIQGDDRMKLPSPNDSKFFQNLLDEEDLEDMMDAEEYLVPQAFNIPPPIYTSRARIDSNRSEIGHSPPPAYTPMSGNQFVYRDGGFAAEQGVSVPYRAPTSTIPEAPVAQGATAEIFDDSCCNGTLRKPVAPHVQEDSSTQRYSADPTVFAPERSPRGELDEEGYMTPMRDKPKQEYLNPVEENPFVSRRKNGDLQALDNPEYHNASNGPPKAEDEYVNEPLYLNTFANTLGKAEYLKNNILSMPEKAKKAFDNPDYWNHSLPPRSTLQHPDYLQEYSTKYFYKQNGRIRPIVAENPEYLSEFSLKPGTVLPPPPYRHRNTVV

| SMILES | Residual activity (ERBB4; 1.0E-05 M) | Residual activity (ERBB4; 1.0E-06 M) | Residual activity (PRKD2; 1.0E-05 M) | Residual activity (PRKD2; 1.0E-06 M) | Residual activity (EPHA8; 1.0E-05 M) | Residual activity (EPHA8; 1.0E-06 M) | Residual activity (PIM1; 1.0E-05 M) | Residual activity (PIM1; 1.0E-06 M) | Residual activity (MAP3K9; 1.0E-05 M) | Residual activity (MAP3K9; 1.0E-06 M) | Residual activity (STK39; 1.0E-05 M) | Residual activity (STK39; 1.0E-06 M) | Residual activity (ERK2; 1.0E-05 M) | Residual activity (ERK2; 1.0E-06 M) | Residual activity (CDC42BPB; 1.0E-05 M) | Residual activity (CDC42BPB; 1.0E-06 M) | Residual activity (CAMKK2; 1.0E-05 M) | Residual activity (CAMKK2; 1.0E-06 M) |
| --- | --- | --- | --- | --- | --- | --- | --- | --- | --- | --- | --- | --- | --- | --- | --- | --- | --- | --- |
| O=C(Nc1ccc(F)c(Nc2ccc3c(c2)CCCCC3=O)c1)c1cccc(F)c1 [Compound 109] | 81 % of control | 98 % of control | 81 % of control | 82 % of control | 91 % of control | 110 % of control | 70 % of control | 96 % of control | 103 % of control | 89 % of control | 100 % of control | 90 % of control | 93 % of control | 95 % of control | 110 % of control | 106 % of control | 81 % of control | 84 % of control |
| O=C(Cc1ccccc1)Nc1ccc(F)c(Nc2ccc3c(c2)CCCCC3=O)c1 [Compound 100] | 71 % of control | 97 % of control | 92 % of control | 87 % of control | 91 % of control | 98 % of control | 74 % of control | 88 % of control | 96 % of control | 102 % of control | 106 % of control | 108 % of control | 90 % of control | 101 % of control | 107 % of control | 112 % of control | 95 % of control | 97 % of control |
